Like-named read-outs stand apart in the source and are kept apart here.
Legend:
[1] = target: T1, (Homo sapiens, UniProt P19793); assay: RXR homodimer co-transfection assay in CV-1 cells; type: cell-based; conditions: CV-1
T1 sequence (P19793 1-462): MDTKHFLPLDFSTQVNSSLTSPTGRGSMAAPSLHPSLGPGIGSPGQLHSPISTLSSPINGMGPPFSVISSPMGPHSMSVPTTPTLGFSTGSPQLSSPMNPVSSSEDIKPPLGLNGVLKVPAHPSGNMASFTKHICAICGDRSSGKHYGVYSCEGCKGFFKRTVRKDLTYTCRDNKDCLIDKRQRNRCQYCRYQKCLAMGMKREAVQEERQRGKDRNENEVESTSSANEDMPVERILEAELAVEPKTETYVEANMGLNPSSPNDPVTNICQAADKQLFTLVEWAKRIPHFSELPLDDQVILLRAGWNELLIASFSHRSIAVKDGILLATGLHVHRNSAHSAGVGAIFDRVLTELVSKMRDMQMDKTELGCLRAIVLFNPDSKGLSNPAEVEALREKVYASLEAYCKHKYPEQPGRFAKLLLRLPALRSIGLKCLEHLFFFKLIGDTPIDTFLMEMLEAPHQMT
Text: In the co-transfection assay, cloned cDNA for one or more IRs (e.g., human RARα, RXRα, or PPARγ), alone or in combination (i.e. for heterodimer assays) under the control of a constitutive promoter (e.g., the SV 40, RSV or CMV promoter) is introduced by transfection (a procedure to introduce exogenous genes into cells) into a background cell substantially devoid of endogenous IRs. These introduced gene(s) direct the recipient cells to make the IR protein(s) of interest. A further gene is also introduced (co-transfected) into the same cells in conjunction with the IR gene(s). This further gene, comprising the cDNA for a reporter protein, such as firefly luciferase (LUC), controlled by an appropriate hormone responsive promoter containing a hormone response element (HRE). This reporter plasmid functions as a reporter for the transcriptional-modulating activity of the target IR(s). Thus, the reporter acts as a surrogate for the products (mRNA then protein) normally expressed by a gene under control of the target receptor(s) and their native hormone(s).
Exposing the transfected cells to an agonist ligand compound increases reporter activity in the transfected cells. This activity can be conveniently measured, e.g., by increasing luciferase production and enzymatic activity, which reflects compound-dependent, IR-mediated increases in reporter transcription. […] Increasing concentrations of an antagonist will decrease the reporter signal (e.g., luciferase production). The co-transfection assay is therefore useful to detect both agonists and antagonists of specific IRs. Furthermore, it determines not only whether a compound interacts with a particular IR, but whether this interaction mimics (agonizes) or blocks (antagonizes) the effects of native or synthetic regulatory molecules on target gene expression, as well as the specificity and strength of this interaction.
The receptor expression plasmid was cotransfected along with a reporter plasmid at 50 ng/well, the internal control plasmid pRS-β-Gal at 50 ng/well and filler DNA, pGEM, at 90 ng/well.
Six hours after transfection, media was removed and the cells were washed with phosphate-buffered saline (PBS). Media containing compounds of the present invention in concentrations ranging from 10^−10 to 10^−5 M were added to the cells. […] Retinoids were dissolved in dimethylsulfoxide for use in the transcriptional activation assays. Two to three replicates were used for each sample. Transfections and subsequent procedures were performed on a Biomek 1000 automated workstation.
After 40 hours, the cells were washed with PBS, lysed with a detergent-based buffer and assayed for LUC and β-Gal activities using a luminometer or spectrophotometer, respectively. For each replicate, the normalized response (NR) was calculated as: […]
The mean and standard error of the mean (SEM) of the NR were calculated. Data were plotted as the response of the compound compared to the reference compounds over the range of the dose-response curve. […] Antagonist activity was determined by testing the amount of LUC expression in the presence of the RXR agonists described above at the EC50 concentration for such known compounds. […] In addition, the efficacy of antagonists was determined as a function (%) of maximal inhibition.

db/db mouse = db/db mouse study (rodent model of Type II diabetes); conditions: for inhibition in vivo at 30 mg/kg: Mus musculus, po, 168 h, read-out: db/db mouse Glu. (D7); for db/db mouse Trigs. (D3): plasma triglycerides as % of control values, day 3, 30 mg/kg/day
Protocol: Mice (obtained from Jackson Laboratory), ZDF rats (obtained from Genetic Models Inc.) and fa/fa rats (obtained from either Charles River, or Harlan) were maintained on 12-hour light/dark cycle. […] Compounds were administered at the specified doses by oral gavage on the morning of each day of any experiment. Blood samples were obtained 3 hours after dosing from fed animals under anesthesia and collected into heparinized capillary tubes from the tail vein.

RXRα = target: T2, RXRα (Homo sapiens, UniProt P19793); assay: RXRα binding (competition with tritiated LGD1069); conditions: Table 2; from IC50 by Cheng-Prussof equation, tritiated LGD1069; read-out: Bind RXRα Ki
T2 sequence (P19793 1-462): T1 sequence (P19793 1-462)
Protocol: Non-specific binding was defined as that binding remaining in the presence of 500 nM of the appropriate unlabelled compound. At the end of the incubation period, bound ligand was separated from free. The amount of bound tritiated retinoid was determined by liquid scintillation counting of an aliquot (700 μL) of the supernatant fluid or the hydroxylapatite pellet.
After correcting for non-specific binding, IC50 values were determined. […] The IC50 value was determined graphically from a log-logit plot of the data. The Ki values were determined by application of the Cheng-Prussof equation to the IC50 values, the labeled ligand concentration and the Kd of the labeled ligand.

RXRα:RAR heterodimer = target: T3, RXRα:RAR heterodimer (Homo sapiens, UniProt P19793); assay: RXR:RAR heterodimer co-transfection assay in CV-1 cells; type: cell-based; conditions: CV-1; read-out: RXR:RAR CV-1 (%) Ag.
T3 construct: expressed in transfected cells; host or cells: CV-1 cells
T3 sequence (P19793 1-462): T1 sequence (P19793 1-462)
Protocol: For determination of agonist activity in the context of the RXR:RAR heterodimer or the RXR:PPARγ heterodimer, media containing compounds of the present invention in concentrations ranging from 10^−10 to 10^−5 M were added to the cells.
Compounds of the present invention were also tested for the ability to synergize with a PPARγ agonist in the context of an RXR heterodimer. […] Efficacy of the compounds of the present invention in the agonist and synergy assays was calculated as the maximum response obtained over the range of the dose response curve relative to the maximum response obtained by the reference agonist. Antagonist efficacy was determined as a function (%) of maximal inhibition.
However, when RAR is occupied, typical RXR agonists activate the heterodimer. […] To examine the effects of the compounds of the present invention on the transcriptional properties of the RXR:RAR heterodimer, a heterodimer cotransfection assay as described above was employed.

[2] = tested on: mice transgenic for the human apolipoprotein A-I gene; assay: transgenic mice carrying the human apo A-I gene (HDL cholesterol, triglycerides); type: in vivo, mouse
Text: Mice transgenic for the human apolipoprotein A-I gene (obtained from Jackson Laboratory) were used to evaluate PPARalpha mediated effects on HDL cholesterol. The mice were handled as described above for db/db mice, except that they were fed Purina 5001.

Crl:CD-1 (ICR)BR mice = assay: teratogenicity in pregnant Crl:CD-1 (ICR)BR mice; type: in vivo, mouse; conditions: daily oral gavage, gestation days 6-18; L6 30 or 200 mg/kg-day, LG100268 30 or 100 mg/kg-day
Protocol: Teratogenicity is commonly evaluated by examination of fetuses obtained by cesarean section from pregnant mice dosed daily with test compound between gestation days 6-18. We have conducted a blinded study using time-mated female Crl:CD-1® (ICR)BR mice to evaluate potential developmental toxicity (teratogenicity) following administration of L6 at either 30 or 200 mg/kg-day by daily oral gavage for the specified […] of gestation. Each test group consisted of 7-8 pregnant females and produced approx. 100 live fetuses per test group. […] The highest dose of L6 tested (200 mg/kg-day) is twice the dose required to produce maximum antidiabetic activity in db/db mice (100 mg/kg-day).

[3] = rodent models of Type II Diabetes

Row | Structure (SMILES) | Emax ([1]; Table 2, first RXR:RAR head (c4), maximal repression (100%) in presence of 32 nM LGD1069 (RXR:RXR), read-out: RXR:RAR CV-1 (%) Antag.) [%] | Emax ([1]; read-out: RXR:RAR CV-1 (%) Ag.) [%] | inhibition in vivo at 30 mg/kg (db/db mouse) [%] | db/db mouse Trigs. (D3) (db/db mouse) [%] | insulin sensitizing activity with thyroid axis suppression and triglyceride elevations (db/db mouse; [3]) | Ki (RXRα) [nM] | Emax (RXRα:RAR heterodimer) [%] | db/db mouse Glu. (D 14) (db/db mouse; plasma glucose, % correction relative to lean values, day 14, 100 mg/kg daily oral gavage) [%] | db/db mouse Trigs. (D 14) (db/db mouse; plasma triglycerides, % correction relative to lean values, day 14, NC = no change) [%] | effect on the thyroid hormone axis (db/db mouse; [3]) | effect on triglycerides (db/db mouse; [3]) | insulin sensitizing activity / effect on glucose (db/db mouse; [3]) | db/db mouse T4 (D 3) (db/db mouse; total T4 as % of obese control values, day 3, NC = no change) [%] | triglycerides [2] | teratogenicity in fetuses (Crl:CD-1 (ICR)BR mice)
1 | CC(/C=C/C1=C(c2cc(C(C)C)cc(C(C)C)c2OCCCF)CCC1)=C\C(=O)O [Compound L14] | 80 | 3 | 45 | 138 | maintain the desirable insulin sensitizing activity and minimize both the suppression of the thyroid axis and triglyceride elevations | 5 | 2 | – | – | – | – | – | – | – | –
2 | Cc1cc2c(cc1C1(c3ccc(C(=O)O)cn3)CC1)C(C)(C)CCC2(C)C [LG100268, 6-[1-(3,5,5,8,8-pentamethyl-5,6,7,8-tetrahydronaphthalen-2-yl)cyclopropyl]nicotinic acid, reference compound] | – | – | 73 | 195 | – | – | – | 73 | 82 | suppress the thyroid hormone axis | raise triglycerides | efficacious insulin sensitizers | 43 | substantially raise triglycerides | Teratogenicity was observed

Source: US20040049072A1, “RXR modulators with improved pharmacologic profile” (priority 1999, published 2004)
